Assay results reported in ChEMBL document CHEMBL4411303, “Synthesis of tetrazole derivatives bearing pyrrolidine scaffold and evaluation of their antifungal activity against Candida albicans” (Eur J Med Chem, 2019).

Key:
Format in all cases: functional
Candida albicans [1] = assay: Antifungal activity against Candida albicans ATCC 90028 assessed as planktonic growth inhibition at 0.17 uM after 48 hrs by M27-A3 protocol based method relative to control; settings: ATCC 90028, 48 h, read-out: GI
Candida albicans [2] = assay: Fungicidal activity against Candida albicans ATCC 90028 assessed as log reduction in fungal load incubated for 48 hrs followed by replating on sabouraud dextrose agar plate and measured after 48 hrs
Candida albicans [3] = assay: Antifungal activity against Candida albicans ATCC 90028 assessed as planktonic growth inhibition at 10.87 uM after 48 hrs by M27-A3 protocol based method relative to control; settings: ATCC 90028, 48 h, read-out: GI
Candida albicans [4] = assay: Antifungal activity against Candida albicans ATCC 90028 assessed as planktonic growth inhibition at 21.75 uM after 48 hrs by M27-A3 protocol based method relative to control; settings: ATCC 90028, 48 h, read-out: GI
Candida albicans [5] = assay: Antifungal activity against Candida albicans ATCC 90028 assessed as planktonic growth inhibition at 43.49 uM after 48 hrs by M27-A3 protocol based method relative to control; settings: ATCC 90028, 48 h, read-out: GI
Candida albicans [6] = assay: Antifungal activity against Candida albicans ATCC 90028 assessed as planktonic growth inhibition at 5.44 uM after 48 hrs by M27-A3 protocol based method relative to control; settings: ATCC 90028, 48 h, read-out: GI
Candida albicans [7] = assay: Antifungal activity against Candida albicans ATCC 90028 assessed as planktonic growth inhibition at 0.34 uM after 48 hrs by M27-A3 protocol based method relative to control; settings: ATCC 90028, 48 h, read-out: GI
Candida albicans [8] = assay: Antifungal activity against Candida albicans ATCC 90028 assessed as planktonic growth inhibition at 0.68 uM after 48 hrs by M27-A3 protocol based method relative to control; settings: ATCC 90028, 48 h, read-out: GI
Candida albicans [9] = assay: Antifungal activity against Candida albicans ATCC 90028 assessed as planktonic growth inhibition at 0.08 uM after 48 hrs by M27-A3 protocol based method relative to control; settings: ATCC 90028, 48 h, read-out: GI
Candida albicans [10] = assay: Antifungal activity against Candida albicans ATCC 90028 assessed as planktonic growth inhibition at 1.36 uM after 48 hrs by M27-A3 protocol based method relative to control; settings: ATCC 90028, 48 h, read-out: GI
Candida albicans [11] = assay: Antifungal activity against Candida albicans ATCC 90028 assessed as planktonic growth inhibition at 2.72 uM after 48 hrs by M27-A3 protocol based method relative to control; settings: ATCC 90028, 48 h, read-out: GI
Candida albicans [12] = assay: Antifungal activity against Candida albicans ATCC 90028 assessed as planktonic growth inhibition at 5.76 uM after 48 hrs by M27-A3 protocol based method relative to control; settings: ATCC 90028, 48 h, read-out: GI
Candida albicans [13] = assay: Antifungal activity against Candida albicans ATCC 90028 assessed as planktonic growth inhibition at 2.88 uM after 48 hrs by M27-A3 protocol based method relative to control; settings: ATCC 90028, 48 h, read-out: GI
Candida albicans [14] = assay: Antifungal activity against Candida albicans ATCC 90028 assessed as planktonic growth inhibition at 23.02 uM after 48 hrs by M27-A3 protocol based method relative to control; settings: ATCC 90028, 48 h, read-out: GI
Candida albicans [15] = assay: Antifungal activity against Candida albicans ATCC 90028 assessed as planktonic growth inhibition at 0.18 uM after 48 hrs by M27-A3 protocol based method relative to control; settings: ATCC 90028, 48 h, read-out: GI
Candida albicans [16] = assay: Antifungal activity against Candida albicans ATCC 90028 assessed as planktonic growth inhibition at 1.44 uM after 48 hrs by M27-A3 protocol based method relative to control; settings: ATCC 90028, 48 h, read-out: GI
Candida albicans [17] = assay: Antifungal activity against Candida albicans ATCC 90028 assessed as planktonic growth inhibition at 0.72 uM after 48 hrs by M27-A3 protocol based method relative to control; settings: ATCC 90028, 48 h, read-out: GI
Candida albicans [18] = assay: Antifungal activity against Candida albicans ATCC 90028 assessed as planktonic growth inhibition at 0.36 uM after 48 hrs by M27-A3 protocol based method relative to control; settings: ATCC 90028, 48 h, read-out: GI
Candida albicans [19] = assay: Antifungal activity against Candida albicans ATCC 90028 assessed as planktonic growth inhibition at 0.09 uM after 48 hrs by M27-A3 protocol based method relative to control; settings: ATCC 90028, 48 h, read-out: GI
Candida albicans [20] = assay: Antifungal activity against Candida albicans ATCC 90028 assessed as planktonic growth inhibition at 11.51 uM after 48 hrs by M27-A3 protocol based method relative to control; settings: ATCC 90028, 48 h, read-out: GI
Candida albicans [21] = assay: Antifungal activity against Candida albicans ATCC 90028 assessed as planktonic growth inhibition at 46.05 uM after 48 hrs by M27-A3 protocol based method relative to control; settings: ATCC 90028, 48 h, read-out: GI
Candida albicans [22] = assay: Antifungal activity against Candida albicans ATCC 90028 assessed as planktonic growth inhibition at 9.94 uM after 48 hrs by M27-A3 protocol based method relative to control; settings: ATCC 90028, 48 h, read-out: GI
Candida albicans [23] = assay: Antifungal activity against Candida albicans ATCC 90028 assessed as planktonic growth inhibition at 19.88 uM after 48 hrs by M27-A3 protocol based method relative to control; settings: ATCC 90028, 48 h, read-out: GI
Candida albicans [24] = assay: Antifungal activity against Candida albicans ATCC 90028 assessed as planktonic growth inhibition at 39.77 uM after 48 hrs by M27-A3 protocol based method relative to control; settings: ATCC 90028, 48 h, read-out: GI
Candida albicans [25] = assay: Antifungal activity against Candida albicans ATCC 90028 assessed as planktonic growth inhibition at 1.24 uM after 48 hrs by M27-A3 protocol based method relative to control; settings: ATCC 90028, 48 h, read-out: GI
Candida albicans [26] = assay: Antifungal activity against Candida albicans ATCC 90028 assessed as planktonic growth inhibition at 4.97 uM after 48 hrs by M27-A3 protocol based method relative to control; settings: ATCC 90028, 48 h, read-out: GI
Candida albicans [27] = assay: Antifungal activity against Candida albicans ATCC 90028 assessed as planktonic growth inhibition at 2.49 uM after 48 hrs by M27-A3 protocol based method relative to control; settings: ATCC 90028, 48 h, read-out: GI
Candida albicans [28] = assay: Antifungal activity against Candida albicans ATCC 90028 assessed as planktonic growth inhibition at 0.62 uM after 48 hrs by M27-A3 protocol based method relative to control; settings: ATCC 90028, 48 h, read-out: GI
Candida albicans [29] = assay: Antifungal activity against Candida albicans ATCC 90028 assessed as planktonic growth inhibition at 0.31 uM after 48 hrs by M27-A3 protocol based method relative to control; settings: ATCC 90028, 48 h, read-out: GI
Candida albicans [30] = assay: Antifungal activity against Candida albicans ATCC 90028 assessed as planktonic growth inhibition at 0.16 uM after 48 hrs by M27-A3 protocol based method relative to control; settings: ATCC 90028, 48 h, read-out: GI
Candida albicans [31] = assay: Antifungal activity against Candida albicans ATCC 90028 assessed as planktonic growth inhibition at 1.31 uM after 48 hrs by M27-A3 protocol based method relative to control; settings: ATCC 90028, 48 h, read-out: GI
Candida albicans [32] = assay: Antifungal activity against Candida albicans ATCC 90028 assessed as planktonic growth inhibition at 10.47 uM after 48 hrs by M27-A3 protocol based method relative to control; settings: ATCC 90028, 48 h, read-out: GI
Candida albicans [33] = assay: Antifungal activity against Candida albicans ATCC 90028 assessed as planktonic growth inhibition at 0.65 uM after 48 hrs by M27-A3 protocol based method relative to control; settings: ATCC 90028, 48 h, read-out: GI
Candida albicans [34] = assay: Antifungal activity against Candida albicans ATCC 90028 assessed as planktonic growth inhibition at 41.9 uM after 48 hrs by M27-A3 protocol based method relative to control; settings: ATCC 90028, 48 h, read-out: GI
Candida albicans [35] = assay: Antifungal activity against Candida albicans ATCC 90028 assessed as planktonic growth inhibition at 2.62 uM after 48 hrs by M27-A3 protocol based method relative to control; settings: ATCC 90028, 48 h, read-out: GI
Candida albicans [36] = assay: Antifungal activity against Candida albicans ATCC 90028 assessed as planktonic growth inhibition at 5.24 uM after 48 hrs by M27-A3 protocol based method relative to control; settings: ATCC 90028, 48 h, read-out: GI
Candida albicans [37] = assay: Antifungal activity against Candida albicans ATCC 90028 assessed as planktonic growth inhibition at 0.33 uM after 48 hrs by M27-A3 protocol based method relative to control; settings: ATCC 90028, 48 h, read-out: GI
Candida albicans [38] = assay: Antifungal activity against Candida albicans ATCC 90028 assessed as planktonic growth inhibition at 20.95 uM after 48 hrs by M27-A3 protocol based method relative to control; settings: ATCC 90028, 48 h, read-out: GI

SMILES | log(activity) (Candida albicans [2]) | inhibition of growth at 0.08 µM (Candida albicans [9]) [%] | inhibition of growth at 5.76 µM (Candida albicans [12]) [%] | inhibition of growth at 2.88 µM (Candida albicans [13]) [%] | inhibition of growth at 23.02 µM (Candida albicans [14]) [%] | inhibition of growth at 0.18 µM (Candida albicans [15]) [%] | inhibition of growth at 1.44 µM (Candida albicans [16]) [%] | inhibition of growth at 0.72 µM (Candida albicans [17]) [%] | inhibition of growth at 0.36 µM (Candida albicans [18]) [%] | inhibition of growth at 0.09 µM (Candida albicans [19]) [%] | inhibition of growth at 11.51 µM (Candida albicans [20]) [%] | inhibition of growth at 46.05 µM (Candida albicans [21]) [%] | inhibition of growth at 0.16 µM (Candida albicans [30]) [%] | inhibition of growth at 1.31 µM (Candida albicans [31]) [%] | inhibition of growth at 10.47 µM (Candida albicans [32]) [%] | inhibition of growth at 0.65 µM (Candida albicans [33]) [%] | inhibition of growth at 41.9 µM (Candida albicans [34]) [%] | inhibition of growth at 2.62 µM (Candida albicans [35]) [%] | inhibition of growth at 5.24 µM (Candida albicans [36]) [%] | inhibition of growth at 0.33 µM (Candida albicans [37]) [%] | also measured
Clc1ccc(-c2nnn(CCCN3CCCC3c3ccccc3)n2)cc1 (stereo unspecified) | -0.5 | 99.3 |  |  |  |  |  |  |  |  |  |  |  |  |  |  |  |  |  |  | inhibition of growth at 0.17 µM (Candida albicans [1]): 99.3%; inhibition of growth at 10.87 µM (Candida albicans [3]): 99.2%; inhibition of growth at 21.75 µM (Candida albicans [4]): 99.2%; inhibition of growth at 43.49 µM (Candida albicans [5]): 99.1%; inhibition of growth at 5.44 µM (Candida albicans [6]): 99.3%; inhibition of growth at 0.34 µM (Candida albicans [7]): 99.3%; inhibition of growth at 0.68 µM (Candida albicans [8]): 99.3%; inhibition of growth at 1.36 µM (Candida albicans [10]): 99.4%; inhibition of growth at 2.72 µM (Candida albicans [11]): 99.4%
Cc1ccc(-c2nnn(CCCN3CCCC3c3ccccc3)n2)cc1 (stereo unspecified) | -1 |  | 94.4 | 95.1 | 99.4 | 99.8 | 97.8 | 98.8 | 98.8 | 99 | 93.4 | 98.5 |  |  |  |  |  |  |  |  | 
Cc1ccc(C2CCCN2CCCn2nnc(-c3ccccc3)n2)cc1 (stereo unspecified) | -0.6 |  | 99.2 | 99.2 | 99 | 99.3 | 99.2 | 99.3 | 99 | 98.9 | 99.5 | 99 |  |  |  |  |  |  |  |  | 
Clc1ccc(C2CCCN2CCCn2nnc(-c3ccccc3Cl)n2)cc1 (stereo unspecified) | -0.4 | 98.8 |  |  |  |  |  |  |  |  |  |  | 98.9 |  |  |  |  |  |  |  | inhibition of growth at 9.94 µM (Candida albicans [22]): 99.4%; inhibition of growth at 19.88 µM (Candida albicans [23]): 99.5%; inhibition of growth at 39.77 µM (Candida albicans [24]): 99.6%; inhibition of growth at 1.24 µM (Candida albicans [25]): 99.2%; inhibition of growth at 4.97 µM (Candida albicans [26]): 99.3%; inhibition of growth at 2.49 µM (Candida albicans [27]): 99.3%; inhibition of growth at 0.62 µM (Candida albicans [28]): 99.2%; inhibition of growth at 0.31 µM (Candida albicans [29]): 99%
Cc1cccc(C2CCCN2CCCn2nnc(-c3ccc(Cl)cc3)n2)c1 (stereo unspecified) | -0.4 | 99.3 |  |  |  |  |  |  |  |  |  |  | 99.3 | 99.3 | 98.9 | 99.3 | 98.9 | 99.3 | 99.3 | 99.3 | inhibition of growth at 20.95 µM (Candida albicans [38]): 98.8%
Cc1ccc(C2CCCN2CCCn2nnc(-c3ccccc3Cl)n2)cc1 (stereo unspecified) | -0.2 | 98.8 |  |  |  |  |  |  |  |  |  |  | 98.9 | 99.2 | 99.5 | 99.2 | 99.6 | 99.3 | 99.4 | 99.2 | inhibition of growth at 20.95 µM (Candida albicans [38]): 99.5%
